From ChEMBL document CHEMBL3244188, “Antagonists of slow reacting substance of anaphylaxis. Synthesis of a series of chromone-2-carboxylic acids” (J Med Chem, 1977)

test system: Ileum; experiment: Antagonism of slow reacting substance of anaphylaxis-induced contraction in guinea pig ileum treated 30 secs before SRS-A challenge; assay type: functional, tissue-based; conditions: Cavia porcellus

Structure (SMILES) | IC50 [µg/mL]
C=CCc1c(OCC(O)COc2ccc(C(C)=O)c(O)c2)ccc2c(=O)cc(C(=O)[O-])oc12.[Na+] (stereo not drawn) | 3.3
CCCc1c(OCC(O)COc2ccc3c(=O)cc(C(=O)[O-])oc3c2CCC)ccc(C(C)=O)c1OC.[Na+] (stereo not drawn) | 45
CCCc1c(OCC(O)COc2ccc3c(=O)cc(C(=O)[O-])oc3c2)ccc(C(C)=O)c1O.[Na+] (stereo not drawn) | 0.08
CCCc1ccccc1OCC(O)COc1cc2oc(C(=O)[O-])cc(=O)c2cc1CCC.[Na+] (stereo not drawn) | 1.6
C=CCc1c(OCCCCCOc2cccc(O)c2C(C)=O)ccc2c(=O)cc(C(=O)[O-])oc12.[Na+] | 0.05
CCCc1cc(C(C)=O)ccc1OCC(O)COc1ccc2c(=O)cc(C(=O)[O-])oc2c1CCC.[Na+] (stereo not drawn) | 0.15
CCCc1ccccc1OCC(O)COc1ccc2c(=O)cc(C(=O)[O-])oc2c1CCC.[Na+] (stereo not drawn) | 0.044
CCCc1c(OCc2ccccc2)cccc1OCC(O)COc1ccc2c(=O)cc(C(=O)[O-])oc2c1CCC.[Na+] (stereo not drawn) | 1
O=C([O-])c1cc(=O)c2cc(CCCCCc3ccccc3)ccc2o1.[Na+] | 4.5
C=CCc1c(OCCCCCOc2ccc(C(=O)CN)cc2)ccc2c(=O)cc(C(=O)[O-])oc12.[Na+] | 3.9
CCCc1c(OCC(O)COc2ccc3c(=O)cc(C(=O)[O-])oc3c2CCC)ccc(C(C)=O)c1O.[Na+] (stereo not drawn) [FPL-55712 SODIUM SALT] | 0.005
CCCc1c(OCCCOc2ccc3c(=O)cc(C(=O)[O-])oc3c2CCC)ccc(C(C)=O)c1O.[Na+] | 0.001
O=C([O-])c1cc(=O)c2cc(Cc3ccccc3)ccc2o1.[Na+] | 6.6
C=CCc1c(OCC(O)COc2ccc3c(=O)cc(C(=O)[O-])oc3c2)ccc(C(C)=O)c1O.[Na+] (stereo not drawn) | 0.1
O=C([O-])c1cc(=O)c2c(OCCOc3ccccc3)cccc2o1.[Na+] | 100
C=CCc1c(OCCCCCOc2ccc3c(=O)cc(C(=O)[O-])oc3c2CC=C)ccc(C(C)=O)c1O.[Na+] | 1.23
CCCc1c(OCC(O)COc2cccc(O)c2C(C)=O)ccc2c(=O)cc(C(=O)[O-])oc12.[Na+] (stereo not drawn) | 0.3
O=C([O-])c1cc(=O)c2cc(CCCc3ccccc3)ccc2o1.[Na+] | 3
C=CCc1c(OCC(O)COc2ccc3c(=O)cc(C(=O)[O-])oc3c2CC=C)ccc(C(C)=O)c1O.[Na+] (stereo not drawn) | 0.05
CCCc1ccccc1OCCCOc1cc2oc(C(=O)[O-])cc(=O)c2cc1CCC.[Na+] | 18
CCCc1ccccc1OCCCOc1ccc2c(=O)cc(C(=O)[O-])oc2c1CCC.[Na+] | 0.18

Next, values leading:

IC50 [µg/mL] | Structure (SMILES)
0.9 | C=CCc1ccc(OCCCCCOc2ccc3c(=O)cc(C(=O)[O-])oc3c2)c(C(C)=O)c1O.[Na+]
7 | O=C([O-])c1cc(=O)c2ccc(OCC(O)COc3ccccc3)cc2o1.[Na+] (stereo not drawn)
0.4 | O=C([O-])c1cc(=O)c2ccc(OCCCCCSc3ccccc3)cc2o1.[Na+]
0.8 | O=C([O-])c1cc(=O)c2c(OCCCCCCCOc3ccccc3)cccc2o1.[Na+]
6.8 | CC(=O)c1ccc(OCCCCCOc2ccc3c(=O)cc(C(=O)[O-])oc3c2)cc1O.[Na+]
28 | CC(=O)c1ccc(OCC(O)COc2ccc3c(=O)cc(C(=O)[O-])oc3c2)cc1O.[Na+] (stereo not drawn)
1.5 | O=C([O-])c1cc(=O)c2ccc(OCCCCCOc3cccc(O)c3)cc2o1.[Na+]
1.4 | O=C([O-])c1cc(=O)c2ccc(OCCCOc3ccccc3)cc2o1.[Na+]
1 | O=C([O-])c1cc(=O)c2ccc(OCCCCCOc3cccc(OCc4ccccc4)c3)cc2o1.[Na+]
35 | O=C([O-])c1cc(=O)c2c(OCCCOc3ccccc3)cccc2o1.[Na+]
17.5 | O=C([O-])c1cc(=O)c2c(OCCCCCOc3ccccc3)cccc2o1.[Na+]
0.6 | O=C([O-])c1cc(=O)c2ccc(OCCCCCc3ccccc3)cc2o1.[Na+]
2 | CCCc1ccccc1OCC(O)COc1ccc2c(=O)cc(C(=O)[O-])oc2c1.[Na+] (stereo not drawn)
3.3 | O=C([O-])c1cc(=O)c2cc(OCCCOc3ccccc3)ccc2o1.[Na+]
3.3 | O=C([O-])c1cc(=O)c2cc(OCCCCCOc3ccccc3)ccc2o1.[Na+]
3.5 | CC(=O)c1ccc(OCCCCCOc2ccc3c(=O)cc(C(=O)[O-])oc3c2)cc1.[Na+]
0.4 | O=C([O-])c1cc(=O)c2ccc(OCCCCCOc3ccccc3)cc2o1.[Na+]
6 | O=C([O-])c1cc(=O)c2c(OCCCCCCCCCOc3ccccc3)cccc2o1.[Na+]
1.8 | O=C([O-])c1cc(=O)c2ccc(OCCCCCCCOc3ccccc3)cc2o1.[Na+]
50 | O=C([O-])c1cc(=O)c2cccc(OCCCOc3ccccc3)c2o1.[Na+]
1.8 | C=CCc1ccccc1OCC(O)COc1ccc2c(=O)cc(C(=O)[O-])oc2c1.[Na+] (stereo not drawn)
1.8 | O=C([O-])c1cc(=O)c2ccc(OCCCCCCCCCOc3ccccc3)cc2o1.[Na+]
2.4 | C=CCc1c(OCCCCCOc2ccc(C(C)=O)cc2)ccc2c(=O)cc(C(=O)[O-])oc12.[Na+]
1.5 | COc1cccc(OCCCCCOc2ccc3c(=O)cc(C(=O)[O-])oc3c2)c1.[Na+]
0.3 | O=C([O-])c1cc(=O)c2ccc(SCCCCCOc3ccccc3)cc2o1.[Na+]
9 | O=C([O-])c1cc(=O)c2cccc(OCCCCCOc3ccccc3)c2o1.[Na+]
15 | O=C([O-])c1cc(=O)c2ccc(OCCOc3ccccc3)cc2o1.[Na+]
